What all share (assay): NCI anticancer screen, dose series, 48 h
Assay [1] relates to TK-10.
For assay [2], the system named is COLO 205.
The subject of assay [3] is SNB-19.
In assay [4] the test system is UACC-257.
The test system of assay [5] is A498.
The test system of assay [6] is CCRF-CEM.
Assay [7] concerns CAKI-1.
The test system of assay [8] is OVCAR-5.
In assay [9] the test system is SF-539.
Assay [10] has as its system HOP-92.
In assay [11] the test system is HCT-15.
The test system of assay [12] is LOX IMVI.
Assay [13] deals with OVCAR-3.
In assay [14] the test system is K562.
Assay [15] has as its system OVCAR-4.
Assay [16] concerns EKVX.
Assay [17] has as its system HCC 2998.
Assay [18] deals with ACHN.
The subject of assay [19] is SK-MEL-28.
For assay [20], the system named is SF-295.

Each structure is given as a SMILES string.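 How tested: cells in 96-well plates exposed to compound for 48 hours at five concentrations. The concentration for 50% growth inhibition is given as GI50.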 Calls of active or inactive are those of the source. Cut-off read from the data, not from the text of the source: active = GI50 up to about 1.1 µM and inactive = higher.

As for `COc1ccc([I+]c2ccc(OC)cc2)cc1`, the GI50 in [1] is > 100 µM (inactive); in [2], 60.5 µM (inactive); in assay [3] it was 96.8 µM (inactive); in assay [4], 11.6 µM (inactive); in [5], > 100 µM (inactive); in assay [6] it was 74.5 µM (inactive). The GI50 in assay [7] is > 100 µM (inactive); in assay [8], > 100 µM (inactive); in assay [9], > 78.3 µM (inactive); in [10], > 100 µM (inactive); in assay [11] it was more than 22.2 µM; in assay [12] it was 28.6 µM (inactive). Also, the GI50 in [13] is 26.7 µM (inactive); in assay [14], 21.1 µM (inactive); in assay [15], > 75.2 µM (inactive); in [16], > 75 µM (inactive); in [17], > 100 µM (inactive); in [18], > 100 µM (inactive). Moreover, the GI50 is 73.6 µM (inactive) in assay [19] and 30 µM (inactive) in assay [20].

Take `CC(=O)Nc1ccc(/C=C/C(=O)N2CC(CCl)c3c2cc(N)c2ccccc32)cc1` (configuration not stated): the GI50 was < 0.005 µM (active) in assay [1]; 0.00893 µM (active) in assay [2]; < 0.005 µM (active) in [3]; 0.0156 µM (active) in assay [4]; < 0.005 µM (active) in [5]; < 0.005 µM (active) in [6]. For the same compound, the GI50 is < 0.005 µM (active) in [7]; < 0.005 µM (active) in assay [8]; < 0.005 µM (active) in assay [9]; < 0.005 µM (active) in assay [10]; less than 0.005 µM in assay [11]; < 0.005 µM (active) in assay [12]. Also, the GI50 was 0.0127 µM (active) in assay [13]; 0.0211 µM (active) in [14]; 0.0226 µM (active) in [15]; 0.01 µM (active) in [16]; < 0.005 µM (active) in [17]; < 0.005 µM (active) in [18]. Moreover, the GI50 was 0.00641 µM (active) in assay [19] and < 0.005 µM (active) in [20].

In the case of `O=C(O)CCCCCCCCC(=O)O` [SEBACIC ACID], the GI50 in assay [2] is > 79.3 µM (inactive); in [3] it was 108 µM (inactive); in [4], 108 µM (inactive); in [5] it was > 23.2 µM (inactive); in assay [6], 300 µM (inactive); in assay [7], > 500 µM (inactive). Moreover, the GI50 in assay [8] is > 500 µM (inactive); in assay [9], > 79.3 µM (inactive); in assay [10], 5 µM (inactive); in assay [11], 99.1 µM; in assay [12], > 500 µM (inactive); in assay [13] it was 79.3 µM (inactive). For the same compound, the GI50 in assay [14] is > 500 µM (inactive); in assay [15], > 50 µM (inactive); in assay [16], 50 µM (inactive); in [17] it was 50 µM (inactive); in [19], > 500 µM (inactive); in assay [20], 79.3 µM (inactive).

Consider `COc1ccc(-c2cc(C(O)C3CCCCN3)c3ccccc3n2)cc1` (configuration not stated), for which the GI50 in assay [1] is 10.4 µM (inactive); in assay [2] it was 1.89 µM (inactive); in [3], 13.7 µM (inactive); in [4], 2.15 µM (inactive); in assay [5], 12.3 µM (inactive); in [6], 2.8 µM (inactive). Moreover, the GI50 is 5.86 µM (inactive) in assay [7]; 12 µM (inactive) in [8]; 10.1 µM (inactive) in [9]; 2.86 µM (inactive) in assay [10]; 14.2 µM in assay [11]; 2.62 µM (inactive) in [12]. The GI50 is 14.4 µM (inactive) in assay [13]; 2.54 µM (inactive) in [14]; 13.7 µM (inactive) in assay [15]; 6.92 µM (inactive) in assay [16]; 2.19 µM (inactive) in assay [17]; 11.9 µM (inactive) in assay [18]. For the same compound, the GI50 was 2.43 µM (inactive) in assay [19] and 14.7 µM (inactive) in assay [20].

Turning to `CCOP(=O)(OCC)/C(C#N)=C/c1cccn1Cc1ccccc1`, the GI50 in assay [1] is 40.9 µM (inactive); in assay [2] it was 21.5 µM (inactive); in [3] it was 44.4 µM (inactive); in assay [4] it was 39.5 µM (inactive); in assay [5], 34.3 µM (inactive); in assay [6], 27.2 µM (inactive). Also, the GI50 was 42.2 µM (inactive) in assay [7]; 83.2 µM (inactive) in assay [8]; 18.5 µM (inactive) in assay [9]; 13.5 µM (inactive) in assay [10]; 29 µM in assay [11]; 20.8 µM (inactive) in assay [12]. The GI50 in assay [13] was 40.6 µM (inactive); in assay [14] it was 28.2 µM (inactive); in assay [16], 38 µM (inactive); in assay [17], 35.3 µM (inactive); in [18] it was 34.4 µM (inactive); in [19], 19.7 µM (inactive). Moreover, in assay [20], the GI50 was 29.6 µM (inactive).

For the compound `N#Cc1c(N2CCOCC2)ncn(-c2ccccc2)c1=O`, the GI50 in assay [2], in assay [3], in assay [4], in assay [5], in assay [6] and in assay [7] was > 100 µM (inactive) each time. Besides, the GI50 was > 100 µM (inactive) in assay [8]; > 100 µM (inactive) in assay [9]; > 100 µM (inactive) in assay [10]; more than 100 µM in assay [11]; > 100 µM (inactive) in assay [12]; > 100 µM (inactive) in assay [13]. Moreover, the GI50 in assay [14], in assay [16], in assay [17], in assay [18], in assay [19] and in [20] was > 100 µM (inactive) throughout.

`C[C@H]1[C@@H]2C[C@@H]3O[C@@]34[C@H]3CCC5Cc6nc7c(nc6C[C@@]5(C)[C@]3(O)CC(=O)[C@@]24CO[C@]12OC(C)(C)C[C@@H]2O)CC1CC[C@@H]2C3=C[C@H]4O[C@@]5(OC(C)(CO)C[C@@H]5O)[C@H](C)[C@@]4(O)[C@]3(C)[C@@H](O)CC2[C@]1(C)C7` (some centres not stated): the GI50 was 0.0655 µM (active) in assay [2]; 0.139 µM (active) in [4]; 0.0108 µM (active) in assay [5]; 0.0105 µM (active) in assay [6]; 0.0809 µM (active) in assay [7]; 0.0343 µM (active) in assay [8]. The GI50 was 0.0179 µM (active) in [9]; 0.0254 µM (active) in assay [10]; 0.121 µM in assay [11]; 0.024 µM (active) in [12]; 0.7 µM (active) in assay [13]; 0.0266 µM (active) in assay [14]. The GI50 in assay [15] was 0.194 µM (active); in [16], 0.0573 µM (active); in assay [17] it was 0.506 µM (active); in assay [20], 0.00215 µM (active).

Take `O=C(O)c1ccc([N+](=O)[O-])c2c(=O)c3ccccc3[nH]c12`: the GI50 in assay [2], in [3], in assay [4], in assay [5], in assay [6] and in [7] was > 100 µM (inactive) in each case. Also, the GI50 in assay [8] was > 100 µM (inactive); in assay [9], > 100 µM (inactive); in assay [10], > 100 µM (inactive); in [11], more than 100 µM; in assay [12], > 100 µM (inactive); in assay [14], > 100 µM (inactive). In addition, the GI50 in assay [15], in [17], in [18] and in assay [20] was > 100 µM (inactive) throughout.

`O=C(Nc1ccc(C2=NCCN2)cc1)c1cncc(C(=O)Nc2ccc(C3=NCCN3)cc2)c1`: the GI50 in [2], in [3], in [4], in [5], in assay [6] and in [7] was > 100 µM (inactive) throughout. For the same compound, the GI50 is > 100 µM (inactive) in [8]; > 100 µM (inactive) in assay [9]; > 100 µM (inactive) in assay [10]; more than 100 µM in assay [11]; > 100 µM (inactive) in [12]; > 100 µM (inactive) in assay [13]. The GI50 in assay [14] was > 100 µM (inactive); in assay [15], > 100 µM (inactive); in assay [16], > 100 µM (inactive); in [17] it was > 100 µM (inactive); in assay [19], > 31.6 µM (inactive); in assay [20], > 100 µM (inactive).

On to `CC1(C)N=C(N)N=C(N)N1c1ccc(Cl)cc1`, for which the GI50 is 48.8 µM (inactive) in assay [1]; 7.06 µM (inactive) in assay [2]; 22.6 µM (inactive) in assay [3]; 26.5 µM (inactive) in assay [4]; 58.6 µM (inactive) in assay [5]; 2.74 µM (inactive) in assay [6]. Besides, the GI50 in assay [7] was 19.1 µM (inactive); in [8] it was 15 µM (inactive); in assay [9], 4.42 µM (inactive); in [10], 24.1 µM (inactive); in [11] it was 7.11 µM; in [12], 1.34 µM (inactive). Also, the GI50 was 0.317 µM (active) in [14]; > 100 µM (inactive) in assay [15]; 26.7 µM (inactive) in [16]; 9.02 µM (inactive) in [17]; 5.16 µM (inactive) in [18]; 37.1 µM (inactive) in assay [19]. In assay [20], the GI50 was 3.33 µM (inactive).

Take `Cn1c2ccccc2c(=O)c2c(O)cc3c(c21)C=CC(C)(C)O3` [NORACRONYCINE]: the GI50 in [2] was > 25 µM (inactive); in assay [3], 9.31 µM (inactive); in [4], > 25 µM (inactive); in [5] it was > 13.5 µM (inactive); in assay [6], > 25 µM (inactive); in assay [7] it was 3.05 µM (inactive). Moreover, the GI50 in [8] was > 25 µM (inactive); in [9], > 25 µM (inactive); in assay [10], > 25 µM (inactive); in assay [11], more than 25 µM; in assay [12], > 25 µM (inactive); in assay [13] it was > 25 µM (inactive). Further, the GI50 in assay [14] was > 25 µM (inactive); in [15], > 25 µM (inactive); in [16], > 21.1 µM (inactive); in assay [17] it was > 25 µM (inactive); in assay [19], > 25 µM (inactive); in assay [20] it was > 25 µM (inactive).

The values are drawn from ChEMBL document CHEMBL1201862, “PubChem BioAssay data set” (2004).
